The results in this text go back to patent US10676468B2, “N-(3-heteroarylaryl)-4-arylarylcarboxamides and analogs as hedgehog pathway inhibitors and use thereof” (IMPACT Therapeutics, Inc., priority 2012, dated 2020).

Common to all, as to type: cell-based, mouse
The subject of test [1] is Hedgehog Signaling Pathway. The experiment in a line: SHH-induced differentiation of C3H10T1/2 cells into osteoblastic cells, intracellular alkaline phosphatase activity. Particulars: 10 nM SHH-N, 5 days, alkaline phosphatase activity (OD405), read-out: IC50 values of compounds that inhibit Hh pathway. Summed up: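 Hedgehog pathway inhibition was taken as loss of SHH-driven osteoblastic differentiation. Test compound (10 nM–10 μM) plus SHH-N (10 nM) was applied to C3H10T1/2 cells for 5 days, then lysate phosphatase turnover was measured as the 30-min OD405 change at 37 °C. IC50 was fitted from activity versus log dose.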

Test [2] relates to Hedgehog Signaling Pathway. The experiment in a line: Gli-Luc reporter gene cell assay in C3H10T1/2/Gli-Luc cells stimulated with Shh. To be noted: 30 nM Shh, luciferase activity (RLU), read-out: IC50 values of compounds that inhibit Hh pathway. The source says:
The Application of Reporter Gene Cell Assay for the Determination of the Inhibitory Activity of N-(3-(1H-benzo[d]imidazol-2-yl)-4-chlorophenyl)-2-methyl-4-((2S,6R)-2,6-dimethylmorpholino) benzamide and Analogs on Hedgehog Signaling Pathway
The binding of Sonic hedgehog (Shh) to its receptor Patched 1 initiates numerous intracellular signal transmission, and leads to the nuclear translocation of Gli and the elevated transcription of Gli target genes. When C3H10T1/2 cells are stably transfected with the Gli-Luc plasmids containing the luciferase gene under the control of Gli response element and stimulated with Shh, the expression of luciferase is elevated. Luciferase activity is indicative of the hedgehog signaling pathway activity. Therefore, the inhibitory activity of compounds on hedgehog signaling pathway can be measured using the luciferase activity when the transfected cells are stimulated with Shh.
The day before experiment, C3H10T1/2/Gli-Luc cells in log phase of growth were seeded into 96 well plate at a density of 20000 cells per well. The cells were maintained in DMEM (Hyclone) supplemented with 10% FBS (Hyclone) and incubated at 37° C. with 5% CO2 overnight. The compounds to be examined were diluted into 7 different concentrations by series of dilutions (⅓ and 1/10), and the eighth point of concentration is the DMSO control. Those solutions were diluted 100-fold in the fresh growth medium. The cells were taken out of the incubator and the medium of cultured cells were removed. Then, each well was added in an orderly manner with 80 μL of fresh growth medium, 20 μL of medium pre-dilution of positive compound and compounds to be tested, as well as 100 μL of growth medium containing 30 nM of Shh. The cells are returned to the incubator, and incubated for 24 hours.
Measurement of luciferase activity: After taking the 96 well plate out of the incubator, the supernatants were discarded and the cells were washed twice with PBS. Thereafter, each well was dispensed with 20 μL of lysis buffer (Promega E1531), and the plate was shaken for 30 min at room temperature. Following transferring 5 μL of cell lysate into 384 well plate (Greiner 781074), adding 25 μL of luciferase reaction buffer (Promega E1501) into each well and mixing the plate, the relative light unit (RLU) was immediately captured by VarioSkan Flash.
The data were analyzed with Prism 5 software (GraphPad). The relative light unit (RLU) was plotted against the log concentration of testing compound, and the obtained plot was fitted with non-linear curve fitting equation to calculate IC50 values. The curve fitting equation is Y (RLU)=Bottom+(Top−Bottom)/(1+10^((X−Log IC50))). X is the logarithm of concentration. Y is the measure of relative light unit (RLU).
The calculated IC50 value is a measurement of the inhibitory activity of compound to Hh pathway.

In test [3] the test system is Hedgehog Signaling Pathway. The experiment in a line: SAG-induced differentiation of C3H10T1/2 cells into osteoblastic cells, intracellular alkaline phosphatase activity. Particulars: 1 μM SAG, 5 days, alkaline phosphatase activity (OD405), read-out: IC50 values of compounds that inhibit Hh pathway. Put shortly:
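Mouse C3H10T1/2 cells were induced with SAG and exposed to compound (10 μM to 1 nM) for 5 days at 37 °C. Cells were lysed in 0.2% Triton, and alkaline phosphatase activity was read as OD405 over 30 min at 37 °C in pH 9.8 substrate buffer. IC50 came from a non-linear fit of background-subtracted OD405 against log concentration.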

Setting [4] is: Mus musculus, C3H 10T1/2, 120 h.

Turning to `Cc1ncc(NC(=O)c2ccc(N3C[C@@H](C)N(C)[C@@H](C)C3)nc2)cc1-c1nc2ccccc2[nH]1` [Example 90, N-(5-(1H-benzo[d]imidazol-2-yl)-6-methylpyridin-3-yl)-6-((3S,5R)-3,4,5-trimethylpiperazin-1-yl)nicotinamide], the half-inhibitory concentration (IC50) is 35 nM in test [1] (setting [4]); 25 nM in test [2] (Mus musculus, C3H 10T1/2, 24 h); 461 nM in test [3] (setting [4]).

Turning to `Cc1ccc(-c2cnc(-c3cc(NC(=O)c4ccc(N5C[C@@H](C)O[C@@H](C)C5)cc4C)ccc3Cl)[nH]2)cc1` [Example 80, N-(3-(5-p-tolyl-1H-imidazol-2-yl)-4-chlorophenyl)-2-methyl-4-((2S,6R)-2,6-dimethylmorpholino)benzamide], the IC50 in test [1] (setting [4]) was determined as 2.7 nM; in test [2] (Mus musculus, C3H 10T1/2, 24 h), 1.8 nM; in test [3] (setting [4]) it was 28 nM.

For the compound `C[C@@H]1CN(c2ccc(C(=O)Nc3ccc(Cl)c(-c4nc5ccccc5[nH]4)c3)c(C(F)(F)F)c2)C[C@H](C)N1C` [Example 119, N-(3-(1H-benzo[d]imidazol-2-yl)-4-chlorophenyl)-2-(trifluoromethyl)-4-((3S,5R)-3,4,5-trimethylpiperazin-1-yl)benzamide], the IC50 was 0.76 nM in test [1] (setting [4]); 0.45 nM in test [2] (Mus musculus, C3H 10T1/2, 24 h); 39 nM in test [3] (setting [4]).

With `Cc1cc(-c2ccc(C(F)(F)F)cc2)ccc1C(=O)Nc1ccc(Cl)c(-c2ccccn2)c1` [Example 59, N-(3-(pyridin-2-yl)-4-chlorophenyl)-3-methyl-4′-(trifluoromethyl)biphenyl-4-carboxamide], the IC50 in test [1] (setting [4]) turned out to be 7.5 nM; in test [2] (Mus musculus, C3H 10T1/2, 24 h) it was 9.1 nM; in test [3] (setting [4]) it was 232 nM.

Regarding `C[C@@H]1CN(c2ccc(C(=O)Nc3ccc(Cl)c(-c4ncc(-c5ccsc5)[nH]4)c3)c(Cl)c2)C[C@H](C)N1C` [Example 140, N-(3-(5-(thiophen-3-yl)-1H-imidazol-2-yl)-4-chlorophenyl)-2-chloro-4-((3S,5R)-3,4,5-trimethylpiperazin-1-yl)benzamide], the IC50 in test [1] (setting [4]) was 0.2 nM; in test [2] (Mus musculus, C3H 10T1/2, 24 h), 0.21 nM; in test [3] (setting [4]), 4.8 nM.

In the case of `C[C@@H]1CN(c2ccc(C(=O)Nc3ccc(Cl)c(-c4nc5ccc(F)cc5[nH]4)c3)c(Cl)c2)C[C@H](C)N1C` [Example 99, N-(3-(6-fluoro-1H-benzo[d]imidazol-2-yl)-4-chlorophenyl)-2-chloro-4-((3S,5R)-3,4,5-trimethylpiperazin-1-yl)benzamide], the concentration for half-maximal inhibition (IC50) was 2.6 nM in test [1]; 1.6 nM in test [2] (Mus musculus, C3H 10T1/2, 24 h); 81 nM in test [3] (setting [4]).

`Cc1csc(-c2cnc(-c3cc(NC(=O)c4ccc(N5C[C@@H](C)N(C)[C@@H](C)C5)cc4C)ccc3Cl)[nH]2)c1` [Example 135, N-(3-(5-(4-methylthiophen-2-yl)-1H-imidazol-2-yl)-4-chlorophenyl)-2-methyl-4-((3S,5R)-3,4,5-trimethylpiperazin-1-yl)benzamide]: the IC50 in test [1] (setting [4]) turned out to be 1.5 nM; in test [2] (Mus musculus, C3H 10T1/2, 24 h), 1.2 nM; in test [3] (setting [4]), 67 nM.

In the case of `Cc1cc(N2C[C@@H](C)N(C)[C@@H](C)C2)ccc1C(=O)Nc1ccc(Cl)c(-c2ncc(C3CCCC3)[nH]2)c1` [Example 183, N-(3-(5-cyclopentyl-1H-imidazol-2-yl)-4-chlorophenyl)-2-methyl-4-((3S,5R)-3,4,5-trimethylpiperazin-1-yl)benzamide], the IC50 in test [1] (setting [4]) was 22 nM; in test [2] (Mus musculus, C3H 10T1/2, 24 h), 6.6 nM; in test [3] (setting [4]), 90 nM.

Regarding `C[C@@H]1CN(c2ccc(C(=O)Nc3ccc(Cl)c(-c4ncc(-c5cccs5)[nH]4)c3)c(Cl)c2)C[C@H](C)N1C` [Example 82, N-(3-(5-(thiophen-2-yl)-1H-imidazol-2-yl)-4-chlorophenyl)-2-chloro-4-((3S,5R)-3,4,5-trimethylpiperazin-1-yl)benzamide], the IC50 in test [1] (setting [4]) stood at 0.21 nM; in test [2] (Mus musculus, C3H 10T1/2, 24 h), 0.16 nM; in test [3] (setting [4]), 12 nM.

For `Cc1cc(N2C[C@@H](C)O[C@@H](C)C2)ncc1C(=O)Nc1cnc(Cl)c(-c2nc3ccccc3[nH]2)c1` [Example 85, N-(5-(1H-benzo[d]imidazol-2-yl)-6-chloropyridin-3-yl)-4-methyl-6-((2S,6R)-2,6-dimethylmorpholino)nicotinamide], the 50% inhibitory concentration (IC50) was 5.6 nM in test [1] (setting [4]); 7.1 nM in test [2] (Mus musculus, C3H 10T1/2, 24 h); 49 nM in test [3] (setting [4]).

For the compound `C[C@H]1CN(c2ccc(C(=O)Nc3ccc(Cl)c(-c4nc5ccccc5[nH]4)c3)c(Cl)c2)CCN1C` [Example 126, (S)—N-(3-(1H-benzo[d]imidazol-2-yl)-4-chlorophenyl)-2-chloro-4-(3,4-dimethylpiperazin-1-yl)benzamide], the IC50 is 25 nM in test [1] (setting [4]); 2.3 nM in test [2] (Mus musculus, C3H 10T1/2, 24 h); 81 nM in test [3] (setting [4]).

For `Cc1csc(-c2cnc(-c3cc(NC(=O)c4ccc(N5C[C@@H](C)N(C)[C@@H](C)C5)cc4Cl)ccc3Cl)[nH]2)c1` [Example 136, N-(3-(5-(4-methylthiophen-2-yl)-1H-imidazol-2-yl)-4-chlorophenyl)-2-chloro-4-((3S,5R)-3,4,5-trimethylpiperazin-1-yl)benzamide], the IC50 amounted to 4 nM in test [1] (setting [4]); 0.97 nM in test [2] (Mus musculus, C3H 10T1/2, 24 h); 9.2 nM in test [3] (setting [4]).

On to `Cc1cc(N2C[C@@H](C)N(C)[C@@H](C)C2)ccc1C(=O)Nc1ccc(Cl)c(-c2ncc(-c3cccs3)[nH]2)c1` [Example 81, N-(3-(5-(thiophen-2-yl)-1H-imidazol-2-yl)-4-chlorophenyl)-2-methyl-4-((3S,5R)-3,4,5-trimethylpiperazin-1-yl)benzamide], for which the IC50 in test [1] (setting [4]) came to 0.16 nM; in test [2] (Mus musculus, C3H 10T1/2, 24 h) it was 0.15 nM; in test [3] (setting [4]), 6.4 nM.

In the case of `Cc1cc(N2C[C@@H](C)N(C)[C@@H](C)C2)ccc1C(=O)Nc1ccc(Cl)c(-c2nc3ccc(F)cc3[nH]2)c1` [Example 98, N-(3-(6-fluoro-1H-benzo[d]imidazol-2-yl)-4-chlorophenyl)-2-methyl-4-((3S,5R)-3,4,5-trimethylpiperazin-1-yl)benzamide], the IC50 in test [1] (setting [4]) is 1.4 nM; in test [2] (Mus musculus, C3H 10T1/2, 24 h), 0.96 nM; in test [3] (setting [4]), 24 nM.

`Cc1cc(N2C[C@@H](C)N(C)[C@@H](C)C2)ccc1C(=O)Nc1ccc(Cl)c(-c2nc3cscc3[nH]2)c1` [Example 198]: the IC50 in test [1] worked out at 0.3 nM; in test [2] (24 hours) it was 0.29 nM; in test [3], 26 nM.

Turning to `CCN1[C@H](C)CN(c2ccc(C(=O)Nc3ccc(Cl)c(-c4nc5ccc(F)cc5[nH]4)c3)c(Cl)c2)C[C@@H]1C` [Example 114, N-(3-(6-fluoro-1H-benzo[d]imidazol-2-yl)-4-chlorophenyl)-2-chloro-4-((3S,5R)-4-ethyl-3,5-dimethylpiperazin-1-yl)benzamide], the IC50 was 9 nM in test [1] (setting [4]); 0.85 nM in test [2] (Mus musculus, C3H 10T1/2, 24 h); 77 nM in test [3] (setting [4]).

In the case of `C[C@@H]1CN(c2ccc(C(=O)Nc3ccc(Cl)c(-c4cnc5ccccc5n4)c3)c(Cl)c2)C[C@H](C)N1C` [Example 204, N-(3-(quinoxalin-2-yl)-4-chlorophenyl)-2-chloro-4-((3S,5R)-3,4,5-trimethylpiperazin-1-yl)benzamide], the IC50 is 49 nM in test [1] (setting [4]); 9.6 nM in test [2] (Mus musculus, C3H 10T1/2, 24 h); 201 nM in test [3] (setting [4]).

Take `Cc1cc(-c2ccc(C(F)(F)F)cc2)ccc1C(=O)Nc1ccc(C)c(-c2nc3ccccc3[nH]2)c1` [Example 46, N-(3-(1H-benzo[d]imidazol-2-yl)-4-methylphenyl)-3-methyl-4′-(trifluoromethyl)biphenyl-4-carboxamide]: the IC50 in test [1] (setting [4]) is 5.1 nM; in test [2] (Mus musculus, C3H 10T1/2, 24 h) it was 5.5 nM; in test [3] (setting [4]) it was 89 nM.

In general, IC50 refers to the concentration needed to halve the response being measured.
